Laboratory results: US8865776B2, “Use of low molecular weight amino alcohols in ophthalmic compositions” (Alcon Research, Ltd., priority 1996, dated 2014)

System: S. marcescens
Assay: Anti-microbial activity, log reduction of survivors after inoculation
Assay type: cell-based
Settings: saline solution with 1.2% amino alcohol, 0.3% sodium chloride, 0.05% disodium edetate, pH 7.4
Protocol: The antibacterial activity of the above-described saline solutions against S. marcescens was evaluated. The formulations were evaluated by inoculating 20 ml of each solution with 0.1 ml of a microbial suspension. The final concentration was 10^6 colony forming units (“CPUs”) per ml. At each time point, pour plates of SCDA were prepared containing diluted aliquots of the various test samples. The bacteria and yeast plates were incubated at 30° to 35° C. for 2 to 3 days. The mold plates were incubated at 20° to 25° C. for five days. Following the colony incubation period, the number of CFUs were counted and the log reduction of the CFUs relative to the starting amount was calculated. The anti-microbial activity of the formulations against S. marcescens and P. aeruginosa was evaluated.

SMILES	Log Reduction of Survivors (6 hours) [log]	Log Reduction of Survivors (24 hours) [log]
CCC(N)(CO)CO [AEPD, 2-amino-2-ethyl-1,3-propanediol]	0.0	0.7
CC(C)(N)CO [AMP, 2-amino-2-methyl-1-propanol]	0.1	0.5
CC(N)(CO)CO [AMPD, 2-amino-2-methyl-1,3-propanediol]	0.0	0.0
OCCN1CCN(CCO)CC1 [BHP, 1,4-Bis(2-hydroxyethyl)-piperazine, reference compound]	0.1	0.1
CN(C)C(C)(C)CO [DMAMP, 2-dimethylamino-methyl-1-propanol]	0.0	0.7
